# From patent US20150064252A1, “SOLID DISPERSION FORMULATION OF AN ANTIVIRAL COMPOUND” (Gilead Pharmasset LLC, priority 2013, published 2015)
# Tests used:
# [1] = Food effect on Compound I pharmacokinetics (fed vs fasted, light or high-fat breakfast); assay type: in vivo, human; conditions: for AUCinf % GLSM Ratio (Fed/Fasted) / AUClast % GLSM Ratio (Fed/Fasted) / Cmax % GLSM Ratio (Fed/Fasted) / Cmax / AUC(0-inf) / AUC(0-t): 100 mg; for Cmax / AUC(0-inf) / AUC(0-t): human, plasma, oral, N = 12; for AUC(0-inf): read-out: AUCinf GLSM; for AUC(0-t): read-out: AUClast GLSM
# [2] = Pharmacokinetics of Compound I after single and multiple oral doses of solid dispersion tablets; assay type: in vivo, human; conditions: for half-life: t1/2
# Experimental: The Compound I formulation is prepared as described above by combining Compound I amorphous free base in a 1:1 ratio by mass with copovidone, which is all dissolved in ethanol and spray dried to produce the Compound I solid dispersion. The Compound I solid dispersion is then mixed with various excipients in a dry granulation process to produce tablets that are film coated prior to packaging.
# 5 mg, 25 mg, 50 mg, and 100 mg tablet formulations were prepared according to Tables 1A and 1B).
# [3] = tested on: HCV infection of genotypes 1 to 6; conditions: cited from earlier work
# [4] = Spray dry feed solution and solid dispersion evaluation (solubility, stability); assay type: physicochemical
# Experimental: The spray dry feed solution was prepared by solubilizing Compound I and polymer in the feed solvent. In certain cases, aggressive mixing or homogenization can be used to avoid clumping of the composition.
# Different polymers were tested for preferred characteristics in the solid dispersions.
# The feed solution was initially evaluated for appropriate solvent with regard to solubility, stability, and viscosity. […] Ethanol and methanol-based feed stocks were assessed for preparation ease and spray dried at a range of inlet and outlet temperatures to assess the robustness of the spray dry process. Both solvents gave rapid dissolution of Compound I and copovidone.
# [5] = high-fat/high-calorie breakfast vs fasted
# [6] = 100 mg fasted, high-fat breakfast cohort (Cohort 6)
# [7] = 100 mg fasted, light breakfast cohort (Cohort 5)
structure (smiles),measurement,setting,value
"COC[C@H]1C[C@@H](c2ncc(-c3ccc4c(c3)COc3cc5c(ccc6nc([C@@H]7CC[C@H](C)N7C(=O)[C@@H](NC(=O)OC)C(C)C)[nH]c65)cc3-4)[nH]2)N(C(=O)[C@H](NC(=O)OC)c2ccccc2)C1 [Compound I, Methyl {(2S)-1-[(2S,5S)-2-(9-{2-[(2S,4S)-1-{(2R)-2-[(methoxycarbonyl)amino]-2-phenylacetyl}-4-(methoxymethyl)pyrrolidin-2-yl]-1H-imidazol-5-yl}-1,11-dihydroisochromeno[4′,3′:6,7]naphtho[1,2-d]imidazol-2-yl)-5-methylpyrrolidin-1-yl]-3-methyl-1-oxobutan-2-yl}carbamate]",AUCinf % GLSM Ratio (Fed/Fasted),[1]; high-fat breakfast,86.30%
same,AUClast % GLSM Ratio (Fed/Fasted),[1]; high-fat breakfast,86.02%
same,Cmax % GLSM Ratio (Fed/Fasted),[1]; high-fat breakfast,75.02%
same,AUCinf % GLSM Ratio (Fed/Fasted),[1]; light breakfast,124.72%
same,AUClast % GLSM Ratio (Fed/Fasted),[1]; light breakfast,124.84%
same,Cmax % GLSM Ratio (Fed/Fasted),[1]; light breakfast,134.89%
same,effect of food on absorption and bioavailability,[1]; formulated as a solid dispersion,slowed the rate of absorption
same,decrease in AUC with food,[1]; [5],14%
same,decrease in Cmax with food,[1]; [5],25%
same,Cmax,[1]; [6],486 ng/mL
same,AUC(0-inf),[1]; [6],3790 ng·h/mL
same,AUC(0-t),[1]; [6],3750 ng·h/mL
same,Cmax,[1]; [7],582 ng/mL
same,AUC(0-inf),[1]; [7],5470 ng·h/mL
same,AUC(0-t),[1]; [7],5390 ng·h/mL
same,Cmax,"[1]; 100 mg fed, high-fat breakfast",364 ng/mL
same,AUC(0-inf),"[1]; 100 mg fed, high-fat breakfast",3270 ng·h/mL
same,AUC(0-t),"[1]; 100 mg fed, high-fat breakfast",3220 ng·h/mL
same,Cmax,"[1]; 100 mg fed, light breakfast",785 ng/mL
same,AUC(0-inf),"[1]; 100 mg fed, light breakfast",6820 ng·h/mL
same,AUC(0-t),"[1]; 100 mg fed, light breakfast",6730 ng·h/mL
same,increase in AUC with food,[1]; light breakfast vs fasted,25%
same,increase in Cmax with food,[1]; light breakfast vs fasted,35%
same,dose proportionality of exposure (AUC and Cmax),"[2]; human, in vivo",nonlinear PK
same,AUC(0-inf),"[2]; human, in vivo, 5 mg",159 ng·h/mL
same,AUC(0-t),"[2]; human, in vivo, 5 mg",134 ng·h/mL
same,CL/F,"[2]; human, in vivo, 5 mg","58,398.0 mL/h"
same,Cmax,"[2]; human, in vivo, 5 mg",22.4 ng/mL
same,Tmax,"[2]; human, in vivo, 5 mg, Tmax",1.5 h
same,half-life,"[2]; human, in vivo, 5 mg",11.2 h
same,AUC(0-inf),"[2]; human, in vivo, 50 mg",3020 ng·h/mL
same,AUC(0-t),"[2]; human, in vivo, 50 mg",2970 ng·h/mL
same,CL/F,"[2]; human, in vivo, 50 mg","19,188.4 mL/h"
same,Cmax,"[2]; human, in vivo, 50 mg",371 ng/mL
same,Tmax,"[2]; human, in vivo, 50 mg, Tmax",2.5 h
same,half-life,"[2]; human, in vivo, 50 mg",13.6 h
same,AUC(0-inf),"[2]; human, in vivo, 100 mg",5060 ng·h/mL
same,AUC(0-t),"[2]; human, in vivo, 100 mg",4990 ng·h/mL
same,CL/F,"[2]; human, in vivo, 100 mg","24,617.9 mL/h"
same,Cmax,"[2]; human, in vivo, 100 mg",575 ng/mL
same,Tmax,"[2]; human, in vivo, 100 mg, Tmax",2.5 h
same,half-life,"[2]; human, in vivo, 100 mg",15.7 h
same,AUC(0-inf),"[2]; human, in vivo, 150 mg",4980 ng·h/mL
same,AUC(0-t),"[2]; human, in vivo, 150 mg",4930 ng·h/mL
same,Cmax,"[2]; human, in vivo, 150 mg",608 ng/mL
same,Tmax,"[2]; human, in vivo, 150 mg, Tmax",2.75 h
same,half-life,"[2]; human, in vivo, 150 mg",16.2 h
same,AUC(0-inf),"[2]; human, in vivo, 450 mg",9580 ng·h/mL
same,AUC(0-t),"[2]; human, in vivo, 450 mg",9500 ng·h/mL
same,CL/F,"[2]; human, in vivo, 450 mg","53,676.4 mL/h"
same,Cmax,"[2]; human, in vivo, 450 mg",1120 ng/mL
same,Tmax,"[2]; human, in vivo, 450 mg, Tmax",3.25 h
same,half-life,"[2]; human, in vivo, 450 mg",15 h
same,Tmax,"[2]; human, in vivo, po, median Tmax (time of maximum plasma concentrations)",1.5 to 3.25 h
same,mean plasma concentrations at 24 hours postdose relative to protein-adjusted EC50 for genotype 1 to 6 HCV replicons,[2]; multiple once-daily doses greater than 5 mg,above the protein-adjusted concentration of a compound inhibiting virus replication by 50% (EC50)
same,anti-HCV activity,[3],potent anti-HCV activity
same,solubility in feed solvent,"[4]; ethanol, methanol, acetone, and dichloromethane (DCM)",excellent solubility
same,chemical stability in feed solution,[4]; ethanolic feed solution,good chemical stability
